Patent US20100240652A1, “Pyridine Derivatives as Sodium Channel Modulators” (Pfizer Inc, priority 2006, published 2010)
pIC50: −log10 of the molar value.

Target: T1, Human NaV1.8 (Homo sapiens, UniProt Q9Y5Y9)
T1 construct: expressed in transfected cells
Experiment: VIPR assay for NaV1.8 compounds (FRET membrane potential)
Assay type: cell-based
Details: Human NaV1.8 HEK293 expressing cell line, channels held open with deltamethrin
From the text: The ability of the pyridine derivatives of the formula (I) to inhibit the NaV1.8 channel may be measured using the assay described below.
VIPR Assay for NaV1.8 compounds
This screen is used to determine the effects of compounds on tetrodotoxin-resistant (TTX-R) sodium channels in Human NaV1.8— (HEK293) expressing cell line, utilising the technology of Aurora's fluorescent Voltage/Ion Probe Reader (VIPR). This experiment is based on FRET (Fluorescence Resonance Energy Transfer) and uses two fluorescent molecules. The first molecule, Oxonol (DiSBAC2(3)), is a highly fluorescent, negatively charged, hydrophobic ion that “senses” the trans-membrane electrical potential. In response to changes in membrane potential, it can rapidly redistribute between two binding sites on opposite sides of the plasma membrane. The voltage dependent redistribution is transduced into a ratiometric fluorescent readout via a second fluorescent molecule (Coumarin (CC2-DMPE)) that binds specifically to one face of the plasma membrane and functions as a FRET partner to the mobile voltage-sensing ion. To enable the assay to work, the channels have to be pharmacologically held in the open state. This is achieved by treating the cells with either deltamethrin (for NaV1.8) or veratridine (for the SHSY-5Y assay for TTX-S channels).
Human NaV1.8 cells are grown in T225 flasks, in a 5% CO2 humidified incubator to about 70% confluence. Media composition consists of DMEM/F-12, 10% FCS and 300 μg/ml Geneticine. They are split using cell dissociation fluid 1:5 to 1:20, depending on scheduling needs, and grown for 3-4 days before the next split.
Plate-out HEK-NaV1.8 cells (100 μl per well) into poly-D-lysine coated plates prior to experimentation as follows:—24 hours @ 3.5×10^4 cells/well (3.5×10^5 cells/ml) or using the technology of Select.
1. Equilibrate buffers at room temperature for 2 hours or at 37° C. for 30 minutes prior to experimentation. 2. Prepare Coumarin dye (see below) and store in dark. Prime the plate washer with Na^+ Free buffer and wash cells twice, Note: Plate washer deposits ˜30 μl residual buffer per well. Add 100 μL Coumarin (CC2-DMPE) solution (see below) to cells and incubate for 45 minutes at room temperature avoiding bright light. 3. Prepare Oxonol (DiSBAC2(3)) dye (see below): 4. Aspirate off Coumarin solution from the cells by washing in Na^+ Free buffer. 5. Add 30 μl compound then add 30 μl Oxonol solution to the cells and incubate for 45 minutes at room temperature in the dark (total well volume ˜90 μl). 6. Once the incubation is complete, the cells are ready to be assayed using the VIPR for sodium addback membrane potential.
The data was analyzed and reported as normalised ratios of intensities measured in the 460 nm and 580 nm channels. The process of calculating these ratios was performed as follows. An additional plate contained control solution with the same DisBAC2(3) concentrations as used in the cell plates, however no cells were included in the background plate. Intensity values at each wavelength were averaged for sample points 5-7 (initial) and 44-49 (final). These averages were subtracted from intensity values averaged over the same time periods in all assay wells. The initial ratio obtained from samples 3-8 (Ri) and the final ratio obtained from samples 45-50 (Rf) are defined as: […]
Final data are normalised to the starting ratio of each well and reported as Rf/Ri. This analysis is performed using a computerised specific programme designed for VIPR generated data. Rf/Ri ratio values are plotted using Excel Labstats (curve fit) or analysed via ECADA to determine an IC50 value for each compound.

T1 sequence (Q9Y5Y9 whole entry): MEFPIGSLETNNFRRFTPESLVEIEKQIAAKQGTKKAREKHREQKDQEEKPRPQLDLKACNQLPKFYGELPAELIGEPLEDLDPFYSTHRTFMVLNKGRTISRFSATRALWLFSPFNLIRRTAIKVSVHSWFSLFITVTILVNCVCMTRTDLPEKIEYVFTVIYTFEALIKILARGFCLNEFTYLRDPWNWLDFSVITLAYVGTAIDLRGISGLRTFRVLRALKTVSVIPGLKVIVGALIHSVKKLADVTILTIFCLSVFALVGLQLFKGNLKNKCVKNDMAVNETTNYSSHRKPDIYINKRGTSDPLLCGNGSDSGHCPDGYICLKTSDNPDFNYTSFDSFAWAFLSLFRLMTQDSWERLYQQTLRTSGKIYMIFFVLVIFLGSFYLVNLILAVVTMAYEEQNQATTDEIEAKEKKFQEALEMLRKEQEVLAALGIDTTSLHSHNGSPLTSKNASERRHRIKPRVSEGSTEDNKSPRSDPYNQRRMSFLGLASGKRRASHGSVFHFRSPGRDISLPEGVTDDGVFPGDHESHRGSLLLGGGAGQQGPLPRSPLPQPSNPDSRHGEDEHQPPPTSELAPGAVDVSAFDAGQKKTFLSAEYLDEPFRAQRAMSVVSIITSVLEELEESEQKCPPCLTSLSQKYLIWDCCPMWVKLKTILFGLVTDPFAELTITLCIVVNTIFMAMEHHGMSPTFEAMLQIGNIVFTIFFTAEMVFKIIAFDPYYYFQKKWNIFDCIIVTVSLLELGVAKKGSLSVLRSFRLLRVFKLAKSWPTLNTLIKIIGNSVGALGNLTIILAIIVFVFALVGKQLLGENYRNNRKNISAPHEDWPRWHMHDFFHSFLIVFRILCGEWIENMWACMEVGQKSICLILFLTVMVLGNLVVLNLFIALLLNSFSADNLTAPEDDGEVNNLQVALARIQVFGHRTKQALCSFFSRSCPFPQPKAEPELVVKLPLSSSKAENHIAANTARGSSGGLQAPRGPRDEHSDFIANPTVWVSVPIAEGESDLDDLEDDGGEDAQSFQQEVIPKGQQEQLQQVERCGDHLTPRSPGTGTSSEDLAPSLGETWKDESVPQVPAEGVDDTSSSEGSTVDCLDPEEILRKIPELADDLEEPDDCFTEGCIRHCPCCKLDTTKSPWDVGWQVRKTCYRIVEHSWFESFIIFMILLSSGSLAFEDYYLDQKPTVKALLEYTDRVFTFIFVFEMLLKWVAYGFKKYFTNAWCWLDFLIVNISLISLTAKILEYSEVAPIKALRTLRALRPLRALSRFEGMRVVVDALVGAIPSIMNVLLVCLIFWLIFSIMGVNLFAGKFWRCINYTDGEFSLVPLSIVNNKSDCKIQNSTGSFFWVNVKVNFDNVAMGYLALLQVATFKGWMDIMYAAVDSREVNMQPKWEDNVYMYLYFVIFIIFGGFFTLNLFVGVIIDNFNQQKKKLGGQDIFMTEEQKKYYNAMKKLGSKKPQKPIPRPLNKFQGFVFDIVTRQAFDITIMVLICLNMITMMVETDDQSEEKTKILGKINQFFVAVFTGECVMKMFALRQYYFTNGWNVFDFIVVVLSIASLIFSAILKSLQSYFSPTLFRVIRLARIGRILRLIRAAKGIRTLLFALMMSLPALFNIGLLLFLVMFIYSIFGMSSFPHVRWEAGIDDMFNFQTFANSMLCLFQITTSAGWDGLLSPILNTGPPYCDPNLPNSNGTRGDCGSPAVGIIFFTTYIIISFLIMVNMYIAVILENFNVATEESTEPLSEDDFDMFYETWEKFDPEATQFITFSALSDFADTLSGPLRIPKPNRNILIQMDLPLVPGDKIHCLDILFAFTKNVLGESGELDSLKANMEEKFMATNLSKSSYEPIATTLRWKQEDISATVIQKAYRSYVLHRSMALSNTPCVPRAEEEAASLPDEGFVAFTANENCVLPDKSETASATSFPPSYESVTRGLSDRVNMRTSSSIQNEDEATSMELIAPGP

Row | Structure (SMILES) | pIC50
1 | C/N=C(\NCC(F)(F)F)c1ccc(-c2cc(Cl)cc(Cl)c2Cl)c(N)n1 [Example 6, 6-Amino-N-methyl-5-(2,3,5-trichloro-phenyl)-N′-(2,2,2-trifluoro-ethyl)-pyridine-2-carboxamidine] | 5.88
2 | CNC(=N)c1ccc(-c2cc(Cl)cc(Cl)c2Cl)c(N)n1 [Example 7, 6-Amino-N-methyl-5-(2,3,5-trichloro-phenyl)-pyridine-2-carboxamidine] | 5.62
3 | C/N=C(\NC)c1ccc(-c2cc(Cl)cc(Cl)c2Cl)c(N)n1 [Example 3, 6-Amino-N,N′-dimethyl-5-(2,3,5-trichloro-phenyl)-pyridine-2-carboxamidine] | 5.74
4 | C/N=C(/c1ccc(-c2cc(Cl)cc(Cl)c2Cl)c(N)n1)N1CCOCC1 [Example 4, 6-(Methylimino-morpholin-4-yl-methyl)-3-(2,3,5-trichloro-phenyl)-pyridin-2-ylamine] | 5.34
5 | CC/N=C(\NCC)c1ccc(-c2cc(Cl)cc(Cl)c2Cl)c(N)n1 [Example 5, 6-Amino-N,N′-diethyl-5-(2,3,5-trichloro-phenyl)-pyridine-2-carboxamidine] | 5.53
6 | CNC(=S)c1ccc(-c2cc(Cl)cc(Cl)c2Cl)c(N)n1 [Example 1, 6-Amino-5-(2,3,5-trichloro-phenyl)-pyridine-2-carbothioic acid methylamide] | 5.53
7 | CN/C(=N\C#N)c1ccc(-c2cc(Cl)cc(Cl)c2Cl)c(N)n1 [Example 2, 6-Amino-N′-cyano-N-methyl-5-(2,3,5-trichlorophenyl)pyridine-2-carboximidamide] | 5.79
